Data reported in patent US20130178477A1, “METHODS OF TREATING DIABETIC NEUROPATHY USING BENZENESULFONAMIDES” (AbbVie Inc., priority 2012, published 2013).

Key:
[1] = Phase 1 first-in-human safety, tolerability and pharmacokinetic studies of Compound A in healthy subjects; format: in vivo
Protocol: (§1) In this study subjects with diabetic neuropathic pain were administered 100 mg BID up to 6 weeks and dosing has been completed. Nevertheless, if there is any new safety signal observed during this study, dosing of Compound A can be discontinued based on the joint decision of the investigators and study sponsor's medical monitor.
(§2) Single doses of Compound A up to 170 mg were well-tolerated in healthy subjects. The Compound A dose of 100 mg twice daily (BID) is the clinical dose used in the ongoing Phase 2a study in subjects with diabetic neuropathic pain. The dose of 100 mg is selected in the current study to explore the effect of Compound A in a microneurography model in order to bridge the efficacy outcome of Compound A in the Phase 2a study.
The safety, tolerability, and pharmacokinetics of Compound A in humans have been evaluated in 94 healthy adult subjects in the Phase 1 first-in-human (FIH) study with the single dose up to 170 mg and multiple doses up to 160 mg for 7 to 14 days. […] Given that Compound A is an investigational drug and this study will be conducted in diabetic patient population that generally has high risk factors, inclusion and exclusion have been carefully established to avoid exposing patients to undue risk. In addition, adequate safety monitoring procedures and stopping criteria are placed in the protocol.

[2] = biological target: T-type (Cav3.2) calcium channel (Homo sapiens, UniProt O95180); assay: T-type calcium channel block (statement of selectivity)
Chain of T-type (Cav3.2) calcium channel (O95180 whole entry): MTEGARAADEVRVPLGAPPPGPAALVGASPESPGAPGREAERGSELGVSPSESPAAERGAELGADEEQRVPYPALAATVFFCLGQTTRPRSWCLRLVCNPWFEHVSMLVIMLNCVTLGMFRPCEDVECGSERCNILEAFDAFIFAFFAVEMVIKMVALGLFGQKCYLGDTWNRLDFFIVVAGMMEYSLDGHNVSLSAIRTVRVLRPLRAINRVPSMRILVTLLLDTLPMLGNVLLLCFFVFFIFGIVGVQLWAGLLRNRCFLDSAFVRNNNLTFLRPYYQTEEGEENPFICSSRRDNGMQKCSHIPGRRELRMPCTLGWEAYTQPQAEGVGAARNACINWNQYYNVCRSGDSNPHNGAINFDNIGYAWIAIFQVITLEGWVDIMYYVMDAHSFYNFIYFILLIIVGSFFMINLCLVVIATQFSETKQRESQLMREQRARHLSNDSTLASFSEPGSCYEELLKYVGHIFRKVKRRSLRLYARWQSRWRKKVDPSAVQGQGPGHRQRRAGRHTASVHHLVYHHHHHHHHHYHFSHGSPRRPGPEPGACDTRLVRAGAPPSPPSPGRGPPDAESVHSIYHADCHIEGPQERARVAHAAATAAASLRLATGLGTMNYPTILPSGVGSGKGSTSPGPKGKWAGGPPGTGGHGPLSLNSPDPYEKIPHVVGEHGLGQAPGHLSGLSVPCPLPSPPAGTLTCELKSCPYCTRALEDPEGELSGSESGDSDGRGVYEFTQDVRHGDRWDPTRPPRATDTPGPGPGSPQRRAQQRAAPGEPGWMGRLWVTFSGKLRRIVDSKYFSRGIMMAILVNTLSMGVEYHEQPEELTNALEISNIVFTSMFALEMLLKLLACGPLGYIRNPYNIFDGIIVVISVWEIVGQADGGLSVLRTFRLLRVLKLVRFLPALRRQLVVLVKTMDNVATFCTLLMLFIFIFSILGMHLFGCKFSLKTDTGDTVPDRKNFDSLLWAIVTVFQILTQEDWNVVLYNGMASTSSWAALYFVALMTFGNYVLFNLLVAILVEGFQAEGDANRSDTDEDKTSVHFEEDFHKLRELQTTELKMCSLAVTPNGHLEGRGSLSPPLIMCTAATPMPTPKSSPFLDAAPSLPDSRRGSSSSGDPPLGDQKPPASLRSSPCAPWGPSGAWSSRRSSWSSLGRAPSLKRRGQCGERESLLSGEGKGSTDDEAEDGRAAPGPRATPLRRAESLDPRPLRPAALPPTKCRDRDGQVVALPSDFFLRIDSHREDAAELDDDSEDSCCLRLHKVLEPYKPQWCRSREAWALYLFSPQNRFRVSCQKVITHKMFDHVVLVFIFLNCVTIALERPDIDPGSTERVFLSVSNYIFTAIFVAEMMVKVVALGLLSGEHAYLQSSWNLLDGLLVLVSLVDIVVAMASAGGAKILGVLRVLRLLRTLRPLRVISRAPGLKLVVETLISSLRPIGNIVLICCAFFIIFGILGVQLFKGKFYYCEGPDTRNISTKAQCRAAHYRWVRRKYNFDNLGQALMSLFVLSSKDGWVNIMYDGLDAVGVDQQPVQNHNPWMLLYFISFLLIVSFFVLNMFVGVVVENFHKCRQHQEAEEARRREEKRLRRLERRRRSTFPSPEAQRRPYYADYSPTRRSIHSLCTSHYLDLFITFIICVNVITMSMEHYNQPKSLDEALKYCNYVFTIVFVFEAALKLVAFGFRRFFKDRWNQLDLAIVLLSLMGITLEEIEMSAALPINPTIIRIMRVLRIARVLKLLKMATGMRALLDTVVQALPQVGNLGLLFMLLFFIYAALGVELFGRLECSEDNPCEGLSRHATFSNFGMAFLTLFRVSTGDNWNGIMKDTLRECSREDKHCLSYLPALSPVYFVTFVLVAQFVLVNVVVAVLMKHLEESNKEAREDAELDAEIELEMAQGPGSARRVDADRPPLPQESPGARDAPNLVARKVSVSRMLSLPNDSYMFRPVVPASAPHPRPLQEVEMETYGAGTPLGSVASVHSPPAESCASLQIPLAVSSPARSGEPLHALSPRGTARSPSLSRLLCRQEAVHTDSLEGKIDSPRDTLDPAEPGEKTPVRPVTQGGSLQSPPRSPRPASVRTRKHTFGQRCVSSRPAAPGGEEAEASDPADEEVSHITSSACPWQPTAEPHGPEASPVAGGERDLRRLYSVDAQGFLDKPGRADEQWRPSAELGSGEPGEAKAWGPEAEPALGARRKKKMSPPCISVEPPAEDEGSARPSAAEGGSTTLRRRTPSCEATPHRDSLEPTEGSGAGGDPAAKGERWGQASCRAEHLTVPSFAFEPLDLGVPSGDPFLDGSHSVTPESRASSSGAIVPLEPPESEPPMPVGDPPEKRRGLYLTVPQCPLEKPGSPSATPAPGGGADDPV

[3] = Ongoing Phase 2 efficacy and safety study in subjects with diabetic neuropathic pain; format: in vivo, human; conditions: 100 mg BID up to 6 weeks
Protocol: as §1, §2

[4] = cited from earlier work
[5] = 94 healthy adult subjects, single dose up to 170 mg, multiple doses up to 160 mg for 7 to 14 days

Compound	tolerability ([1]; 94 healthy adult subjects, single dose up to 170 mg and multiple doses up to 160 mg for 7 to 14 days)	dose dependence of occurrence of adverse events [1, 5]	findings in vital signs, ECG and laboratory tests [1, 5]	severity of adverse events [1, 5]	safety findings ([1]; Phase 1 studies in healthy adults and healthy elderly subjects)	adverse drug reactions in the current clinical program ([1]; current clinical program)	tolerability of single doses ([1]; single doses up to 170 mg, healthy subjects)	selectivity as calcium channel blocker [2]	safety findings [3]	effect on pain ([4]; IV infusion 2 mg/kg or 5 mg/kg, patients with painful diabetic neuropathy)	pain relief versus placebo ([4]; IV infusion 5 mg/kg, patients with painful diabetic neuropathy)	duration of pain relief following infusion ([4]; patients with diabetic neuropathy)	effect of systemic administration in neuropathic pain conditions ([4]; systemic administration, several neuropathic pain conditions)
O=C(c1cc(S(=O)(=O)Nc2ccccc2F)c(F)cc1Cl)N1CCN2CCC[C@@H]2C1 [Compound A, 4-chloro-2-fluoro-N-(2-fluorophenyl)-5-[(8aR)-hexahydropyrrolo[1,2-a]pyrazin-2(1H)-ylcarbonyl]benzenesulfonamide]	well tolerated	does not appear to be dose-dependent	no clinically relevant findings	mild except one event	no clinically important safety findings	no adverse drug reactions identified	well-tolerated	highly selective	no clinically important safety findings	–	–	–	–
CCN(CC)CC(=O)Nc1c(C)cccc1C [Lidocaine]	–	–	–	–	–	–	–	–	–	reduction of pain	consistent superiority to placebo	up to 21 days	analgesic effects
